What was measured:
Ipomoea nil [1] = assay: Herbicidal activity against Ipomoea nil (Japanese morning glory) in plastic pot assessed as killing at 500 g/ha under greenhouse for 20 days by pre-emergence herbicidal activity tests; format: functional
Abutilon theophrasti [2] = assay: Herbicidal activity against Abutilon theophrasti (velvetleaf) in plastic pot assessed as killing at 500 g/ha under greenhouse for 20 days by preemergence herbicidal activity tests; format: functional
Echinochloa frumentacea = assay: Herbicidal activity against Echinochloa frumentacea (Japanese millet) in plastic pot assessed as killing at 500 g/ha under greenhouse for 20 days by preemergence herbicidal activity tests; format: functional
Gossypium hirsutum [3] = assay: Phytotoxicity against Gossypium hirsutum (cotton) at 62.5 g/ha by selectivity assay; format: organism-based; conditions: in vivo
Gossypium hirsutum [4] = assay: Phytotoxicity against Gossypium hirsutum (cotton) at 125 g/ha by selectivity assay; format: organism-based; conditions: in vivo
Sida spinosa [5] = assay: Herbicidal activity against Sida spinosa in field soil at 62.5 g/ha measured after 3 days by preemergence herbicidal activity tests; format: functional
Sida spinosa [6] = assay: Herbicidal activity against Sida spinosa in field soil at 125 g/ha measured after 3 days by preemergence herbicidal activity tests; format: functional
Ipomoea nil [7] = assay: Herbicidal activity against Ipomoea nil (Japanese morning glory) in field soil at 62.5 g/ha measured after 3 days by pre-emergence herbicidal activity tests; format: functional
Ipomoea nil [8] = assay: Herbicidal activity against Ipomoea nil (Japanese morning glory) in field soil at 125 g/ha measured after 3 days by pre-emergence herbicidal activity tests; format: functional
Abutilon theophrasti [9] = assay: Herbicidal activity against Abutilon theophrasti (velvetleaf) in field soil at 62.5 g/ha measured after 3 days by preemergence herbicidal activity tests; format: functional
Abutilon theophrasti [10] = assay: Herbicidal activity against Abutilon theophrasti (velvetleaf) in field soil at 125 g/ha measured after 3 days by preemergence herbicidal activity tests; format: functional
Portulaca oleracea [11] = assay: Herbicidal activity against Portulaca oleracea in field soil at 62.5 g/ha measured after 3 days by preemergence herbicidal activity tests; format: functional
Portulaca oleracea [12] = assay: Herbicidal activity against Portulaca oleracea in field soil at 125 g/ha measured after 3 days by preemergence herbicidal activity tests; format: functional
Amaranthus viridis [13] = assay: Herbicidal activity against Amaranthus viridis in field soil at 62.5 g/ha measured after 3 days by pre-emergence herbicidal activity tests; format: functional
Amaranthus viridis [14] = assay: Herbicidal activity against Amaranthus viridis in field soil at 125 g/ha measured after 3 days by pre-emergence herbicidal activity tests; format: functional
Sorghum halepense [15] = assay: Herbicidal activity against Sorghum halepense (Johnson grass) in field soil at 62.5 g/ha measured after 3 days by preemergence herbicidal activity tests; format: functional
Sorghum halepense [16] = assay: Herbicidal activity against Sorghum halepense (Johnson grass) in field soil at 125 g/ha measured after 3 days by preemergence herbicidal activity tests; format: functional
Eleusine indica [17] = assay: Herbicidal activity against Eleusine indica in field soil at 62.5 g/ha measured after 3 days by preemergence herbicidal activity tests; format: functional
Eleusine indica [18] = assay: Herbicidal activity against Eleusine indica in field soil at 125 g/ha measured after 3 days by preemergence herbicidal activity tests; format: functional
Echinochloa crus-galli [19] = assay: Herbicidal activity against Echinochloa crus-galli (barnyard grass) in field soil at 62.5 g/ha measured after 3 days by preemergence herbicidal activity tests; format: functional
Echinochloa crus-galli [20] = assay: Herbicidal activity against Echinochloa crus-galli (barnyard grass) in field soil at 125 g/ha measured after 3 days by preemergence herbicidal activity tests; format: functional

Row | Compound | Activity (Ipomoea nil [1]) | Activity (Abutilon theophrasti [2]) | Activity (Echinochloa frumentacea) | further results
1 | CCOC(=O)/N=c1/sc(CC)cn1-c1cccc(C(F)(F)F)c1 | 70% | 70% | 70% | –
2 | Cc1cn(-c2cccc(C(F)(F)F)c2)/c(=N/C(=O)C(F)F)s1 | 100% | 100% | 100% | Activity (Gossypium hirsutum [3]): 0%; Activity (Gossypium hirsutum [4]): 0%; Activity (Sida spinosa [5]): 100%; Activity (Sida spinosa [6]): 100%; Activity (Ipomoea nil [7]): 100%; Activity (Ipomoea nil [8]): 100%; Activity (Abutilon theophrasti [9]): 100%; Activity (Abutilon theophrasti [10]): 100%; Activity (Portulaca oleracea [11]): 100%; Activity (Portulaca oleracea [12]): 100%; Activity (Amaranthus viridis [13]): 100%; Activity (Amaranthus viridis [14]): 100%; Activity (Sorghum halepense [15]): 90%; Activity (Sorghum halepense [16]): 90%; Activity (Eleusine indica [17]): 90%; Activity (Eleusine indica [18]): 90%; Activity (Echinochloa crus-galli [19]): 90%; Activity (Echinochloa crus-galli [20]): 100%
3 | Cc1cn(-c2cccc(C(F)(F)F)c2)/c(=N/C(=O)C(F)(F)F)s1 | 100% | 100% | 100% | Activity (Gossypium hirsutum [3]): 10%; Activity (Gossypium hirsutum [4]): 30%; Activity (Sida spinosa [5]): 90%; Activity (Sida spinosa [6]): 100%; Activity (Ipomoea nil [7]): 80%; Activity (Ipomoea nil [8]): 100%; Activity (Abutilon theophrasti [9]): 90%; Activity (Abutilon theophrasti [10]): 100%; Activity (Portulaca oleracea [11]): 90%; Activity (Portulaca oleracea [12]): 90%; Activity (Amaranthus viridis [13]): 90%; Activity (Amaranthus viridis [14]): 100%; Activity (Sorghum halepense [15]): 70%; Activity (Sorghum halepense [16]): 90%; Activity (Eleusine indica [17]): 80%; Activity (Eleusine indica [18]): 90%; Activity (Echinochloa crus-galli [19]): 80%; Activity (Echinochloa crus-galli [20]): 100%
4 | Cc1cn(-c2cccc(C(F)(F)F)c2)/c(=N/C(=O)C(F)(F)C(F)(F)F)s1 | 70% | 80% | 80% | –
5 | CCOC(=O)/N=c1/scc(C)n1-c1cccc(C(F)(F)F)c1 | 0% | 0% | 0% | –
6 | CCOC(=O)/N=c1/scc(Cl)n1-c1cccc(C(F)(F)F)c1 | 0% | 0% | 0% | –
7 | CCOC(=O)/N=c1/scc(N)n1-c1cccc(C(F)(F)F)c1 | 10% | 0% | 30% | –
8 | CCOC(=O)/N=c1/sc(C)cn1-c1cccc(C(F)(F)F)c1 | 90% | 90% | 90% | –
9 | CCCc1cn(-c2cccc(C(F)(F)F)c2)/c(=N\C(=O)OCC)s1 | 40% | 0% | 60% | –
10 | CCOC(=O)/N=c1/sc(C(C)C)cn1-c1cccc(C(F)(F)F)c1 | 10% | 0% | 0% | –
11 | CCOC(=O)/N=c1/sc(Cl)cn1-c1cccc(C(F)(F)F)c1 | 60% | 70% | 90% | –
12 | CCOC(=O)/N=c1/sc(Br)cn1-c1cccc(C(F)(F)F)c1 | 60% | 100% | 90% | –
13 | CCOC(=O)/N=c1/sc(I)cn1-c1cccc(C(F)(F)F)c1 | 90% | 60% | 80% | –
14 | CCOC(=O)/N=c1/sc(SC)cn1-c1cccc(C(F)(F)F)c1 | 50% | 40% | 70% | –
15 | CCOC(=O)/N=c1/sc(C#N)cn1-c1cccc(C(F)(F)F)c1 | 0% | 0% | 20% | –
16 | CCOC(=O)/N=c1/sc2c(n1-c1cccc(C(F)(F)F)c1)CCC2 | 0% | 0% | 0% | –
17 | CCOC(=O)/N=c1/sc2c(n1-c1cccc(C(F)(F)F)c1)CCCC2 | 0% | 0% | 0% | –
18 | CCOC(=O)/N=c1/sc(C)c(Br)n1-c1cccc(C(F)(F)F)c1 | 40% | 0% | 20% | –
19 | CCOC(=O)/N=c1/sc(Br)c(Br)n1-c1cccc(C(F)(F)F)c1 | 40% | 0% | 20% | –
20 | Cc1cn(-c2cccc(C(F)(F)F)c2)c(=N)s1 | 0% | 0% | 40% | –

Row | Compound | Activity (Ipomoea nil [1]) | Activity (Abutilon theophrasti [2]) | Activity (Echinochloa frumentacea) | further results
21 | C/N=c1/sc(C)cn1-c1cccc(C(F)(F)F)c1 | 0% | 0% | 0% | –
22 | Cc1cn(-c2cccc(C(F)(F)F)c2)/c(=N/c2ccc(Cl)cc2)s1 | 0% | 0% | 0% | –
23 | CSC(=S)/N=c1/sc(C)cn1-c1cccc(C(F)(F)F)c1 | 40% | 30% | 50% | –
24 | CC(=O)/N=c1/sc(C)cn1-c1cccc(C(F)(F)F)c1 | 100% | 90% | 100% | –
25 | CC(=S)/N=c1/sc(C)cn1-c1cccc(C(F)(F)F)c1 | 0% | 0% | 10% | –
26 | CCNC(=O)/N=c1/sc(C)cn1-c1cccc(C(F)(F)F)c1 | 40% | 40% | 80% | –
27 | CCNC(=S)/N=c1/sc(C)cn1-c1cccc(C(F)(F)F)c1 | 0% | 0% | 20% | –
28 | Cc1cn(-c2cccc(C(F)(F)F)c2)/c(=N\C(=O)N(C)C)s1 | 20% | 30% | 70% | –
29 | Cc1cn(-c2cccc(C(F)(F)F)c2)/c(=N\C(=O)Nc2ccccc2)s1 | 40% | 60% | 60% | –
30 | Cc1cn(-c2cccc(C(F)(F)F)c2)/c(=N\S(C)(=O)=O)s1 | 80% | 80% | 90% | –
31 | Cc1cn(-c2cccc(C(F)(F)F)c2)/c(=N/C#N)s1 | 50% | 60% | 90% | –
32 | CCC(=O)/N=c1\sc(C)cn1-c1cccc(C(F)(F)F)c1 | 60% | 50% | 70% | –
33 | CCCC(=O)/N=c1\sc(C)cn1-c1cccc(C(F)(F)F)c1 | 40% | 20% | 40% | –
34 | Cc1cn(-c2cccc(C(F)(F)F)c2)/c(=N/C(=O)C(C)C)s1 | 40% | 60% | 70% | –
35 | Cc1cn(-c2cccc(C(F)(F)F)c2)/c(=N/C(=O)C(C)(C)C)s1 | 60% | 40% | 50% | –
36 | Cc1cn(-c2cccc(C(F)(F)F)c2)/c(=N/C(=O)C2CC2)s1 | 60% | 40% | 90% | –
37 | Cc1cn(-c2cccc(C(F)(F)F)c2)/c(=N/C(=O)CCl)s1 | 0% | 0% | 20% | –
38 | Cc1cn(-c2cccc(C(F)(F)F)c2)/c(=N/C(=O)C(Cl)Cl)s1 | 0% | 0% | 30% | –
39 | Cc1cn(-c2cccc(C(F)(F)F)c2)/c(=N/C(=O)CF)s1 | 90% | 70% | 90% | –
40 | CCOC(=O)/N=c1/sccn1-c1cccc(C(F)(F)F)c1 | 20% | 20% | 50% | –

From ChEMBL document CHEMBL3045322, “Synthesis and herbicidal activity of 2-acylimino-3-phenyl-1,3-thiazolines—A new family of bleaching herbicides—” (J Pestic Sci, 2006)
